Test results from patent US12697326B2, “Methods of treating hepatic encephalopathy” (SALIX PHARMACEUTICALS, INC., priority 2008, dated 2026).

Test system: breakthrough overt HE episode in subjects with HE
Experiment: Breakthrough overt HE episodes, second study (open-label treatment extension)
Type: in vivo, human
Description: Unlike the first study, subjects were not required to withdraw from the study after experiencing a breakthrough overt HE episode.
Conn scores and asterixis grades were assessed during the course of the study.
Therefore, the incidence of breakthrough overt HE over time during rifaximin therapy was evaluated. Table 24 presents breakthrough overt HE episodes by total number of HE episodes during the course of the study.

[1] = Continuing Rifaximin N = 70, second study
[2] = New Rifaximin N = 196, second study
[3] = Rifaximin N = 266 (all rifaximin), second study
[4] = first study placebo subjects crossed over to rifaximin in second study
[5] = second study, all rifaximin, up to 680 days
[6] = second study, continuing rifaximin group, up to 680 days
[7] = second study, new rifaximin group, up to 680 days

SMILES: CO[C@H]1/C=C/O[C@@]2(C)Oc3c(C)c(O)c4c(O)c(c5c(nc6cc(C)ccn65)c4c3C2=O)NC(=O)/C(C)=C\C=C\[C@H](C)[C@H](O)[C@@H](C)[C@@H](O)[C@@H](C)[C@H](OC(C)=O)[C@@H]1C [Rifaximin]
- Subjects with total number of HE episodes during the study: 1, % [1]: (14.3) %
- Subjects with total number of HE episodes during the study: 2, % [1]: (8.6) %
- Subjects with total number of HE episodes during the study: 4, % [1]: (1.4) %
- Subjects with total number of HE episodes during the study: 6, % [1]: (1.4) %
- Subjects with ≥1 breakthrough overt HE episode, % [1]: (25.7) %
- Subjects with total number of HE episodes during the study: 1, % [2]: (17.3) %
- Subjects with total number of HE episodes during the study: 2, % [2]: (6.1) %
- Subjects with total number of HE episodes during the study: 3, % [2]: (2.0) %
- Subjects with total number of HE episodes during the study: 4, % [2]: (0.5) %
- Subjects with total number of HE episodes during the study: 5, % [2]: (0.5) %
- Subjects with total number of HE episodes during the study: 10, % [2]: (1.0) %
- Subjects with ≥1 breakthrough overt HE episode, % [2]: (27.6) %
- Subjects with total number of HE episodes during the study: 1, value in parentheses [3]: (16.5) 90
- Subjects with total number of HE episodes during the study: 2, value in parentheses [3]: (6.8) 90
- Subjects with total number of HE episodes during the study: 3, value in parentheses [3]: (1.5) 90
- Subjects with total number of HE episodes during the study: 4, value in parentheses [3]: (0.8) 90
- Subjects with total number of HE episodes during the study: 5, value in parentheses [3]: (0.4) 90
- Subjects with total number of HE episodes during the study: 6, value in parentheses [3]: (0.4) 90
- Subjects with total number of HE episodes during the study: 10, value in parentheses [3]: (0.8) 90
- Subjects with ≥1 breakthrough overt HE episode, value in parentheses [3]: (27.1) 90
- reduction in risk of breakthrough overt HE during rifaximin treatment vs prior placebo experience [4]: 70%
- subjects with breakthrough overt HE during rifaximin treatment (of 82) [4]: 15
- subjects with 3 or more breakthrough HE episodes (second study): Ten
- proportion of subjects with breakthrough overt HE [5]: 27.1%
- subjects with breakthrough overt HE (of 266) [5]: 72
- proportion of subjects with breakthrough overt HE [6]: 25.7%
- subjects with breakthrough overt HE (of 70) [6]: 18
- proportion of subjects with breakthrough overt HE [7]: 27.6%
- subjects with breakthrough overt HE (of 196) [7]: 54
